*1 amine or outer side, *2 acyl side, *3 side chain or, on linkers, in order; H or OH if unused. Where a SMILES comes first, the peptide text is derived from it. Bridges are numbered along the chain shown (N, C = ends). [ ]: non-standard residue; d: D form. X1 = O=C(O)CCCCCCCCCCCCCCCCCCC(=O)N[C@@H](CCCCNC(=O)COCCOCCNC(=O)COCCOCCNC(=O)CCC(=O)N(CCNC(=O)C[*:1])CCNC(=O)C[*:2])C(=O)O; Phe(2-F) = N[C@@H](Cc1ccccc1F)C(=O)O; αMeL = CC(C)C[C@](C)(N)C(=O)O; Aib = CC(C)(N)C(=O)O

The target of series [1] is T1, GIPR (Homo sapiens, UniProt P48546).
T1 construct: expressed in transfected cells
T1 sequence (P48546 22-466): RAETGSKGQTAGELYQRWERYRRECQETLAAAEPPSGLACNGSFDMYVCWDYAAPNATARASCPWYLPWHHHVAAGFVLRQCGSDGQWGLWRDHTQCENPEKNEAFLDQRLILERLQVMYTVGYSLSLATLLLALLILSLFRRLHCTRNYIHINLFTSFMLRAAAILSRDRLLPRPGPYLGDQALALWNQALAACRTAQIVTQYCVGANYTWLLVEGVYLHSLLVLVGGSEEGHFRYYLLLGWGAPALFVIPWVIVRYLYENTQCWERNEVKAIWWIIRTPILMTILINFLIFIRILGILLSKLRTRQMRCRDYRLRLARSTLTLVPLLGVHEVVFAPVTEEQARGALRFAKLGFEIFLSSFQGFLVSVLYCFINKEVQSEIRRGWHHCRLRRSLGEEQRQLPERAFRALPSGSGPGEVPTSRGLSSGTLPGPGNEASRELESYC
Nature of the series: cAMP method (HTRF cAMP detection kit), HEK293/pGM-CREB-L-Luc/GIP pool. Type of series: cell-based. As to conditions: read-out: EC50 (pM) for each receptor GIPR. As for the experimental part:
(§1) 2. Insulinotropic analogues can bind to target receptors on the cell membrane, activate the receptors, and induce release. The activity of the test substance can be determined using the HTRF method with a cAMP detection kit. Therefore, the cAMP method can be used to detect the target peptide derivatives (or polypeptide derivatives, i.e., TG1-TG86) prepared in Example 1 and Example 2. […] The test cell line was selected, treated with cAMP-specific trypsin for digestion. 3 mL of serum-free DMEM culture medium was added, and the cells were pipetted, resuspended, and counted. 5 µL of IBMX (prepared with serum-free DMEM medium, 0.5 mM) and test cells (5 µL/7500 cells/well) were added in a 384-well plate sequentially. The plate was incubated at 37°C under 5% CO2 for 30 min, followed by the addition of cAMP-d2 (5 µL, 1x) and Anti-cAMP-Cryptate (5 µL, 1x). The mixture was kept at room temperature for 1 h, after which the HTRF value was measured using a chemiluminescent microplate reader, and the determination result was recorded. […] Table 4: EC50 values for target peptide derivatives
In general terms: In TR-FRET formats the signal depends on donor and acceptor labels being close together.

The target of series [2] is T2, GCGR (Homo sapiens, UniProt P47871).
T2 construct: expressed in transfected cells
Kind of series: CreLuc method (CRE-luciferase reporter), 293HEK/pGM-CREB-L-Luc/GCGR pool. Type of series: cell-based. As to conditions: 6 h incubation, read-out: EC50 (pM) for each receptor GCGR. An outline of the steps:
(§2)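 Stable HEK293 pools co-expressing each receptor with a CRE-luciferase reporter were plated at 20,000 cells/well in freestyle medium and treated with compound dilution series for 6 h at 37 °C. Luminescence was read with ONE-GLO to derive EC50.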
Background: A reporter such as luciferase makes a cellular process visible.

The target in series [3] is T1, GIPR. Nature of the series: CreLuc method (CRE-luciferase reporter), HEK293/pGM-CREB-L-Luc/GIPR pool. Type of series: cell-based. As to conditions: 6 h incubation, read-out: EC50 (pM) for each receptor GIPR. The method, boiled down: as §2
Series [4] concerns the target T2, GCGR. Nature of the series: cAMP method (HTRF cAMP detection kit), HEK293/pGM-CREB-L-Luc/GCG pool. Type of series: cell-based. Particulars: read-out: EC50 (pM) for each receptor GCGR. As for the experimental part: as §1
A further series concerns the target T3, GLP-1R (Homo sapiens, UniProt P43220).
T3 construct: expressed in transfected cells
Nature of the series: CreLuc method (CRE-luciferase reporter), HEK293/pGM-CREB-L-Luc/GLP-1R pool. Particulars: 6 h incubation, read-out: EC50 (pM) for each receptor GLP-1R. Type of series: cell-based. An outline of the steps:
as §2

The next series in a line: in vivo. Further details: species or system male SD rats. Particulars: rat. As for the experimental part:
The pharmacokinetic behavior of target peptide derivatives (or polypeptide derivatives) prepared in Example 1 and Example 2, i.e., TG1-TG94 in rodents was tested. The specific steps are as follows:
The target peptide derivatives (TG1-TG94) to be tested were administered to male SD rats via subcutaneous injection (SC, 3 mg/kg; drug vehicle: PBS, concentration: 1.5 mg/mL; administration volume: 2 mL) and intravenous injection (IV, 1 mg/kg; drug vehicle: PBS, concentration: 0.5 mg/mL; administration volume: 2 mL) as a single dose, respectively. Whole blood samples were collected from the jugular vein or other appropriate vein at the following time points after administration: for SC, 15 min, 30 min, 1 h, 2 h, 4 h, 6 h, 8 h, 24 h, 48 h, 72 h, 96 h, 120 h, and 168 h; for IV, 5 min, 15 min, 30 min, 1 h, 2 h, 4 h, 8 h, 24 h, 48 h, 72 h, 96 h, 120 h, and 168 h. 0.2 mL of blood was collected and transferred into a labeled EDTA-K2 anticoagulant tube. The tube was gently inverted to ensure thorough mixing of the anticoagulant (EDTA-K2) with the blood and immediately placed on wet ice. Plasma separation was performed as soon as possible by centrifugation under the following conditions: 4°C, 6800xg, for 6 min. The plasma samples were stored in a refrigerator at no higher than -20°C and used for analysis when needed.
Under the condition of yellow light in an ice-water bath, except for blank samples, 300 µL of precipitant containing an internal standard was added to a 96-well plate containing 20 µL of standard curve sample, quality control sample, or unknown sample; 300 µL of acetonitrile was added to the blank sample. The mixture was vortexed, mixed well, and then centrifuged. 150 µL of the supernatant after centrifugation was transferred to a new 96-well plate, and 150 µL of ultrapure water was added and mixed well. The above samples were subjected to quantitative analysis using LC-MS analysis with XB-C18 (2.1 * 100 mm, 3 µm) chromatography for gradient elution. The mobile phases used were: mobile phase A = 0.1% formic acid-water; mobile phase B = acetonitrile. Phoenix WinNonlin software was used to calculate the pharmacokinetic parameters. […] Table 5A: Pharmacokinetic parameters of target peptide derivatives

T2 sequence (P47871 26-477, species assumed): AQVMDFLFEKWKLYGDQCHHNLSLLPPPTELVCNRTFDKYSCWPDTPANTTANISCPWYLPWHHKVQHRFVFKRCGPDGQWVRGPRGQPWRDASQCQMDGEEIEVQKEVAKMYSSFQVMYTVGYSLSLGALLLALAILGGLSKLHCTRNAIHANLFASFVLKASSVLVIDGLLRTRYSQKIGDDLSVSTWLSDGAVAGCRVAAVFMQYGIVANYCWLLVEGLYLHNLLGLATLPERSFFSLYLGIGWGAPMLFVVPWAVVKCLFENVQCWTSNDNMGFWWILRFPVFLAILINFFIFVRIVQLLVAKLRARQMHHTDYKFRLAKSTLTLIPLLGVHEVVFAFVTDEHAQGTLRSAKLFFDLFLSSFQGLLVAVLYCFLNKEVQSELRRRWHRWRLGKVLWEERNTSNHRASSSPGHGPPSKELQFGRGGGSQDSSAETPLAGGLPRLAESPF
T3 sequence (P43220 24-463, species assumed): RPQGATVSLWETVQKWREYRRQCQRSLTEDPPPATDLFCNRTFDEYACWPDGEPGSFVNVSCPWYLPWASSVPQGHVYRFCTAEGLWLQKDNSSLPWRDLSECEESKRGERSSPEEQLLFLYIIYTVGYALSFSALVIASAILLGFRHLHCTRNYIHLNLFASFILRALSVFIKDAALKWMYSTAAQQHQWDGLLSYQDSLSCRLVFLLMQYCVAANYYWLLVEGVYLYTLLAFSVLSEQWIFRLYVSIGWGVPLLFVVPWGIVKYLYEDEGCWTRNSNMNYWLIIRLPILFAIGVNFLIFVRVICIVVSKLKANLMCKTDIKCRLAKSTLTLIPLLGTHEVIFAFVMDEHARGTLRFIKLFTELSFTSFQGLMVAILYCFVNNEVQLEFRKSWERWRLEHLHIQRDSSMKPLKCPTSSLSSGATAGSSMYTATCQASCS

As a reminder, the EC50 is the concentration that produces a half-maximal response. Take `CC[C@H](C)[C@@H]1NC(=O)[C@H](Cc2ccccc2)NC(=O)[C@@H](NC(=O)C(C)(C)NC(=O)[C@H](CCC(N)=O)NC(=O)[C@H](C)NC(=O)[C@H](CCCCNC(C)=O)NC(=O)[C@](C)(CCCCN)NC(=O)[C@H](CC(=O)O)NC(=O)[C@H](CC(C)C)NC(=O)[C@](C)(CC(C)C)NC(=O)[C@@H](NC(=O)[C@](C)(CO)NC(=O)[C@H](Cc2ccc(O)cc2)NC(=O)[C@H](CC(=O)O)NC(=O)[C@H](CO)NC(=O)[C@@H](NC(=O)[C@H](Cc2ccccc2F)NC(=O)[C@@H](NC(=O)CNC(=O)[C@H](CCC(N)=O)NC(=O)C(C)(C)NC(=O)[C@@H](N)Cc2ccc(O)cc2)[C@@H](C)O)[C@@H](C)O)[C@@H](C)CC)CSCC(=O)NCCN(C(=O)CCC(=O)NCCOCCOCC(=O)NCCOCCOCC(=O)NCCCC[C@H](NC(=O)CCCCCCCCCCCCCCCCCCC(=O)O)C(=O)O)CCNC(=O)CSC[C@@H](C(=O)NCC(=O)NCC(=O)N2CCC[C@H]2C(=O)N[C@@H](CO)C(=O)N[C@@H](CO)C(=O)NCC(=O)N[C@@H](C)C(=O)N2CCC[C@H]2C(=O)N2CCC[C@H]2C(=O)N2CCC[C@H]2C(=O)N[C@@H](CO)C(N)=O)NC(=O)[C@H](CC(C)C)NC(=O)[C@H](CC(C)C)NC(=O)[C@H](Cc2ccc(O)cc2)NC(=O)[C@H](CCC(=O)O)NC1=O` [TG61]: the EC50 on GIPR [1] is 5.9 pM; on GCGR [2] it was 268 pM; at GIPR [3], 12.6 pM; on GCGR [4] it was 12.4 pM; at GLP-1R, 264 pM.
In general, AUC(0-inf) refers to total exposure, with the tail of the curve extrapolated. Higher therefore signals high exposure. What is called AUC(0-t) is exposure summed from dosing to a finite time, without extrapolation to infinity. The MRT is a mean duration of stay, worked out from the concentration-time curve. As a reminder, the Vd is a proportionality between amount in the body and measured concentration, not a real space. A low value points to little distribution into tissue. For orientation: clearance means a measure of how efficiently the substance is removed, as volume per time. Higher therefore signals efficient removal. In general, half-life refers to how long it takes for the measured level to halve. A lower half-life goes with fast loss. The bioavailability is dose-corrected exposure relative to a reference, in per cent. A low value points to poor availability. Usually CL/F stands for clearance divided by bioavailability, as obtained after extravascular dosing. One may read the Cmax as the highest concentration seen after dosing. The term Tmax denotes the time at which the peak concentration occurs. Turning to `CC[C@H](C)[C@H](NC(=O)[C@H](Cc1ccccc1)NC(=O)[C@H](C)NC(=O)[C@@H]1CCCCNC(=O)CN(C(=O)CCCNC(=O)COCCOCCNC(=O)COCCOCCNC(=O)CC[C@H](NC(=O)CCCCCCCCCCCCCCCCCCC(=O)O)C(=O)O)CC(=O)NCCCC[C@H](NC(=O)[C@H](CCCCN)NC(=O)[C@H](CC(=O)O)NC(=O)[C@H](CC(C)C)NC(=O)[C@](C)(CC(C)C)NC(=O)[C@@H](NC(=O)[C@H](CO)NC(=O)[C@H](Cc2ccc(O)cc2)NC(=O)[C@H](CC(=O)O)NC(=O)[C@H](CO)NC(=O)[C@@H](NC(=O)[C@H](Cc2ccccc2F)NC(=O)[C@@H](NC(=O)CNC(=O)[C@H](CCC(N)=O)NC(=O)C(C)(C)NC(=O)[C@@H](N)Cc2ccc(O)cc2)[C@@H](C)O)[C@@H](C)O)[C@@H](C)CC)C(=O)N[C@@H](C)C(=O)N[C@@H](CCC(N)=O)C(=O)N1)C(=O)N[C@@H](CCC(=O)O)C(=O)N[C@@H](Cc1ccc(O)cc1)C(=O)N[C@@H](CC(C)C)C(=O)N[C@@H](CC(C)C)C(=O)N[C@@H](C)C(=O)NCC(=O)NCC(=O)N1CCC[C@H]1C(=O)N[C@@H](CO)C(=O)N[C@@H](CO)C(=O)NCC(=O)N[C@@H](C)C(=O)N1CCC[C@H]1C(=O)N1CCC[C@H]1C(=O)N1CCC[C@H]1C(=O)N[C@@H](CO)C(N)=O` [TG87], in the series “in vivo” (male, SD, iv, 1 mg/kg), the area under the curve AUC(0-inf) came out at 257 µg·h/mL, the AUC(0-t) came out at 254 µg·h/mL, the MRT came out at 21.4 h and the distribution volume (Vd) is 0.0891 L/kg. In the series “in vivo” (male, SD, iv, 1 mg/kg), the clearance is 0.0706 mL/min/kg and the half-life is 13.9 h. Further, the bioavailability in the series “in vivo” (male, SD, sc) worked out at 31.8%. Further, in the series “in vivo” (male, SD, sc, 3 mg/kg), the AUC(0-inf) turned out to be 245 µg·h/mL, the exposure AUC(0-t) was 243 µg·h/mL, the CL/F came to 0.204 mL/min/kg and the Cmax stood at 4880 ng/mL. In addition, in the series “in vivo” (male, SD, sc, 3 mg/kg), the mean residence time MRT is 32.3 h, the Tmax is 24 h and the half-life was 15.6 h. Also, in the series “in vivo” (iv, 1 mg/kg), the “AUC0-t /AUC0-inf” value is 0.989 and the Kel turned out to be 0.0504 h⁻¹. Also, in the series “in vivo” (sc, 3 mg/kg), the “AUC0-t /AUC0-inf” value is listed as 0.993 and the Vz/F is 0.276 L/kg. Further, on GCGR [2], the concentration for a half-maximal effect (EC50) was found to be 172 pM. Further, the half-maximal effective concentration (EC50) at GIPR [3] was determined as 27.6 pM. For the same compound, the EC50 at GLP-1R came to 171 pM.
As for `CC[C@H](C)[C@H](NC(=O)[C@H](Cc1ccccc1)NC(=O)[C@H](C)NC(=O)[C@@H]1CSCC(=O)NCCN(C(=O)CCC(=O)NCCOCCOCC(=O)NCCOCCOCC(=O)NCCCC[C@H](NC(=O)CCCCCCCCCCCCCCCCCCC(=O)O)C(=O)O)CCNC(=O)CSC[C@H](NC(=O)[C@H](CCCCN)NC(=O)[C@H](CC(=O)O)NC(=O)[C@H](CC(C)C)NC(=O)[C@](C)(CC(C)C)NC(=O)[C@@H](NC(=O)[C@H](CO)NC(=O)[C@H](Cc2ccc(O)cc2)NC(=O)[C@H](CC(=O)O)NC(=O)[C@H](CO)NC(=O)[C@@H](NC(=O)[C@H](Cc2ccccc2F)NC(=O)[C@@H](NC(=O)CNC(=O)[C@H](CCC(N)=O)NC(=O)C(C)(C)NC(=O)[C@@H](N)Cc2ccc(O)cc2)[C@@H](C)O)[C@@H](C)O)[C@@H](C)CC)C(=O)N[C@@H](C)C(=O)N[C@@H](CCC(N)=O)C(=O)N1)C(=O)N[C@@H](CCC(=O)O)C(=O)N[C@@H](Cc1ccc(O)cc1)C(=O)N[C@@H](CC(C)C)C(=O)N[C@@H](CC(C)C)C(=O)N[C@@H](C)C(=O)NCC(=O)NCC(=O)N1CCC[C@H]1C(=O)N[C@@H](CO)C(=O)N[C@@H](CO)C(=O)NCC(=O)N[C@@H](C)C(=O)N1CCC[C@H]1C(=O)N1CCC[C@H]1C(=O)N1CCC[C@H]1C(=O)N[C@@H](CO)C(N)=O` [TG59] (H-Y[Aib]QGT[Phe(2-F)]TSDYSI[αMeL]LDKCAQCAFIEYLLAGGPSSGAPPPS-NH2; linker 17-20 via X1), the half-maximal effective concentration (EC50) on GIPR [1] stood at 3.9 pM; on GCGR [2], 392 pM; on GIPR [3], 30.7 pM; on GCGR [4] it was 9.1 pM; on GLP-1R it was 51.8 pM.

For the origin of these results see patent publication EP4790066A1, “GLP-1R/GIPR/GCGR TRIPLE AGONIST ANALOGUE AND USE THEREOF” (Shenzhen Bay Laboratory, priority 2023, dated 2025).
